Data reported in paper PMC11649115, “In vitro safety evaluation of dopamine D3R antagonist, R-VK4-116, as a potential medication for the treatment of opioid use disorder” (PLOS ONE, 2024).
Where two headings read alike, the source gives them in different places.

Legend:
OATP1B3 = biological target: T1, OATP1B3 (Homo sapiens, UniProt Q9NPD5); assay: Transporter mediated assay (substrate/inhibitor), MDCK-II cells; format: in vitro ADME
T1 construct: expressed in transfected cells; host or cells: MDCK-II cells
T1 sequence (Q9NPD5 1-702): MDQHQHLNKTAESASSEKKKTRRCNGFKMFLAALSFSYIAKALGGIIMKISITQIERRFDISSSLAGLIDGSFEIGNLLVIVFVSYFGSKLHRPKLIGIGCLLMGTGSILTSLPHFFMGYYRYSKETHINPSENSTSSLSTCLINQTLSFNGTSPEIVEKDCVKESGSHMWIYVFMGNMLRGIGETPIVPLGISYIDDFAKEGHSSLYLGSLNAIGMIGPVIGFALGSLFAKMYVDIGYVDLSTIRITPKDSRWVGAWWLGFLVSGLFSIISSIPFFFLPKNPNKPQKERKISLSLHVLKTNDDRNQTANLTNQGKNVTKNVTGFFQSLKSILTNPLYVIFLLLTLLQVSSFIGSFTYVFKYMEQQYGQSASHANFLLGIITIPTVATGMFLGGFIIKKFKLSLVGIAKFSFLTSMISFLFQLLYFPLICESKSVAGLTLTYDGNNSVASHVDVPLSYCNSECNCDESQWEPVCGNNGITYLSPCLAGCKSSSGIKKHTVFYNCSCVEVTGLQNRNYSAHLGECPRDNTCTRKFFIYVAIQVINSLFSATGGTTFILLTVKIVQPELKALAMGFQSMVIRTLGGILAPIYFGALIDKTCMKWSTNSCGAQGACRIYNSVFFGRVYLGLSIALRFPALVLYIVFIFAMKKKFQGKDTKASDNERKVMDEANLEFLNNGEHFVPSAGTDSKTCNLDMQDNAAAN
Procedure: (§1) The MDCK-II cells were treated to express the transporter of interest. The transport of each probe substrate was determined by radiometric detection (Fig 1 in S1 File). […] For the uptake assay, the net transporter-mediated uptake-rate (V) of the substrate by each SLC transporter was calculated as follows: Transporter–mediatedupdaterate(pmol/min/cm^2)=(Cellularaccumulationincellsexpressingthetransporter)−(Meancellularaccumulationincontrolcells)/Surfacearea×incubationtime
Fold of activity and percent inhibition were determined as follows: Foldofactivity=(Meanuptakerate)transporterexpressingcells/(Meanuptakerate)controlcells Percentinhibition=100−100×(Transport‐mediatedupdaterate)withinhibitor/(Transport‐mediatedupdaterate)vehiclecontrol

CYP2B6 mRNA = assay: CYP induction, mRNA, primary cultured human hepatocytes; conditions: primary cultured human hepatocytes, Fold Induction (CYP2B6 mRNA expression)
Source text: Rifampicin as a positive control and solvent (0.1% DMSO) vehicle control were also included. The acceptance criteria for CYP induction was ≥ 2-fold induction for significant CYP activity, while the acceptance criteria for CYP mRNA was ≥ 4-fold for significant CYP induction.

[1] = Metabolic stability in liver microsomes; conditions: dog, pH 7.4
[2] = Metabolic stability in liver microsomes; conditions: monkey, pH 7.4
[3] = Metabolic stability in hepatocyte; conditions: Sprague Dawley, rat, hepatocytes in suspension
Procedure: (§2) CYP3A4 substrate Midazolam (10 μM) was prepared and incubated in the same manner. […] In addition, in vitro half-life (t1/2, min) and intrinsic clearance (CLint, μl/min/10^6 cells) were calculated [10, 11].

rat hepatocytes = assay: Metabolic stability in hepatocyte; conditions: rat hepatocytes
Procedure: as §2

CYP3A4 mRNA = assay: CYP induction, mRNA, primary cultured human hepatocytes; format: in vitro ADME; conditions: for fold induction at 48 h, 0.01 µM / fold induction at 48 h, 0.1 µM / fold induction at 48 h, 1 µM / fold induction at 48 h, 3 µM / fold induction at 48 h, 5 µM / fold induction at 48 h, 10 µM: human, primary cultured human hepatocytes, read-out: CYP3A4 mRNA Fold Induction (fold of vehicle control)
OAT1 = biological target: T2, OAT1 (Homo sapiens, UniProt Q4U2R8); assay: Transporter mediated assay (substrate/inhibitor), MDCK-II cells; format: in vitro ADME
T2 construct: expressed in transfected cells; host or cells: MDCK-II cells
T2 sequence (Q4U2R8 1-563): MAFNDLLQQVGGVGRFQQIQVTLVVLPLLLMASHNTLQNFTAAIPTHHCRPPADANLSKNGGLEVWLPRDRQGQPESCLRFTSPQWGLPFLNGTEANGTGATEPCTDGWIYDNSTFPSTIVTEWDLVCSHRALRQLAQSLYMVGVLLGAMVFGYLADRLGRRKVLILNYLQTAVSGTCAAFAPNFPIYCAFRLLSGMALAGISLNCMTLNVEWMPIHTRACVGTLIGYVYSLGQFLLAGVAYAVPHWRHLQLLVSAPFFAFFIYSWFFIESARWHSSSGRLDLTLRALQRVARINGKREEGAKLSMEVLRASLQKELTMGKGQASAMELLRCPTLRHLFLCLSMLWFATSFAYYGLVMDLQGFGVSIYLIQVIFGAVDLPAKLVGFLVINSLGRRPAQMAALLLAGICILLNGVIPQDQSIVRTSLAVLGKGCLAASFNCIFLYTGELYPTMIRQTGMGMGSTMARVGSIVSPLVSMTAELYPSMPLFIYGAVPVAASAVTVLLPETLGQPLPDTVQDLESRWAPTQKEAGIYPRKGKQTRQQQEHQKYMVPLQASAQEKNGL
Procedure: as §1

[4] = heat-inactivated liver microsomes

For CCc1cc(Cl)c(OC)c(N2CCN(CC(O)CCNC(=O)c3cc4ccccc4[nH]3)CC2)c1 (stereo not drawn) [R-VK4-116, N-(4-(4-(3-chloro-5-ethyl-2-methoxyphenyl)piperazin-1-yl)-3-hydroxybutyl)-1H-indole-2-carboxamide], the “fold difference in mean uptake rate (substrate test)” value (OATP1B3; OATP1B3, 1 μM, transporter cells vs control cells) was under 2 fold, the “Inhibition (%)” value (OATP1B3; OATP1B3, 0.1% BSA, 10 μM) was “no statistically significant inhibition” and the inhibition at 10 µM (OATP1B3; human, polarized monolayer of MDCK-II cells expressing OATP1B3, OATP1B3, 0.1% BSA, 10 μM) was 5.29 ± 10.7%. The fold induction at 48 h, 10 µM (CYP2B6 mRNA; hepatocyte Lot 336, 10 µM) was 1.9, the fold induction at 48 h, 0.01 µM (CYP2B6 mRNA; hepatocyte Lot 348B, 0.01 µM) was 0.98 and the fold induction at 48 h, 0.1 µM (CYP2B6 mRNA; hepatocyte Lot 348B, 0.1 µM) was 1.2. For the same molecule, the fold induction at 48 h, 1 µM (CYP2B6 mRNA; hepatocyte Lot 348B, 1 µM) was 1, the fold induction at 48 h, 3 µM (CYP2B6 mRNA; hepatocyte Lot 348B, 3 µM) was 1.1 and the fold induction at 48 h, 5 µM (CYP2B6 mRNA; hepatocyte Lot 348B, 5 µM) was 1.1. It also gave a fold induction at 48 h, 10 µM (CYP2B6 mRNA; hepatocyte Lot 348B, 10 µM) of 1.1, a fold induction at 48 h, 0.01 µM (CYP2B6 mRNA; hepatocyte Lot 399, 0.01 µM) of 1.1 and a remaining at 0 h, 1 μM [1, 4] of 100%. For the same molecule, the remaining at 0 h, 10 μM [1, 4] was 100%, the remaining at 2 h, 1 μM [1, 4] was 90.7% and the remaining at 2 h, 10 μM [1, 4] was 90.6%. For the same molecule, the remaining at 0 h, 1 μM ([1]; liver microsomes) was 100%, the remaining at 0 h, 10 μM ([1]; liver microsomes) was 100% and the remaining at 0.5 h, 1 μM ([1]; liver microsomes) was 44.6%. For the same molecule, the remaining at 0.5 h, 10 μM ([1]; liver microsomes) was 74.3%, the remaining at 1 h, 1 μM ([1]; liver microsomes) was 22.5% and the remaining at 1 h, 10 μM ([1]; liver microsomes) was 64.5%. It also gave a remaining at 1.5 h, 1 μM ([1]; liver microsomes) of 22.3%, a remaining at 1.5 h, 10 μM ([1]; liver microsomes) of 55.6% and a remaining at 2 h, 1 μM ([1]; liver microsomes) of 19.7%. The remaining at 2 h, 10 μM ([1]; liver microsomes) was 49.9%, the remaining at 0 h, 1 μM [2, 4] was 100% and the remaining at 0 h, 10 μM [2, 4] was 100%. The remaining at 2 h, 1 μM [2, 4] was 90%, the remaining at 2 h, 10 μM [2, 4] was 89.9% and the remaining at 0 h, 1 μM ([2]; liver microsomes) was 100%. The remaining at 0 h, 10 μM ([2]; liver microsomes) was 100%, the remaining at 0.5 h, 1 μM ([2]; liver microsomes) was 32% and the remaining at 0.5 h, 10 μM ([2]; liver microsomes) was 60.1%. For the same molecule, the remaining at 1 h, 1 μM ([2]; liver microsomes) was 21.2%, the remaining at 1 h, 10 μM ([2]; liver microsomes) was 46.5% and the remaining at 1.5 h, 1 μM ([2]; liver microsomes) was 17.5%. The remaining at 1.5 h, 10 μM ([2]; liver microsomes) was 42.1%, the remaining at 2 h, 1 μM ([2]; liver microsomes) was 15% and the remaining at 2 h, 10 μM ([2]; liver microsomes) was 39.7%. The half-life at 0.5 μM [3] was 1.44 h, the half-life at 10 μM [3] was 2.82 h and the hepatocyte CLint at 0.5 μM [3] was 16 µL/min/1e6 cells. For the same molecule, the hepatocyte CLint at 10 μM [3] was 8.2 µL/min/1e6 cells, the “% remaining Vs T = 0 min” value (rat hepatocytes; 0.5 μM, 0 min) was 100.0% and the “% remaining Vs T = 0 min” value (rat hepatocytes; 0.5 μM, 30 min) was 85.0%. For the same molecule, the “% remaining Vs T = 0 min” value (rat hepatocytes; 0.5 μM, 60 min) was 55.6%, the “% remaining Vs T = 0 min” value (rat hepatocytes; 0.5 μM, 90 min) was 42.4% and the “% remaining Vs T = 0 min” value (rat hepatocytes; 0.5 μM, 120 min) was 42.5%. The “% remaining Vs T = 0 min” value (rat hepatocytes; 10 μM, 0 min) was 100.0%, the “% remaining Vs T = 0 min” value (rat hepatocytes; 10 μM, 30 min) was 95.8% and the “% remaining Vs T = 0 min” value (rat hepatocytes; 10 μM, 60 min) was 92.5%. The “% remaining Vs T = 0 min” value (rat hepatocytes; 10 μM, 90 min) was 66.7%, the “% remaining Vs T = 0 min” value (rat hepatocytes; 10 μM, 120 min) was 64.6% and the “induction in CYP3A4 mRNA, average” value (CYP3A4 mRNA; 5 μM, two days, average of hepatocyte lots) was 2.9 fold. It also gave a fold induction at 48 h, 0.01 µM (CYP3A4 mRNA; Lot 336, 0.01 μM) of 1.1 ± 0.079, a fold induction at 48 h, 0.1 µM (CYP3A4 mRNA; Lot 336, 0.1 μM) of 1.1 ± 0.18 and a fold induction at 48 h, 1 µM (CYP3A4 mRNA; Lot 336, 1 μM) of 2.3 ± 0.15. It also gave a fold induction at 48 h, 3 µM (CYP3A4 mRNA; Lot 336, 3 μM) of 3.7 ± 0.56, a fold induction at 48 h, 5 µM (CYP3A4 mRNA; Lot 336, 5 μM) of 4 ± 0.78 and a fold induction at 48 h, 10 µM (CYP3A4 mRNA; Lot 336, 10 μM) of 3.7 ± 0.2. The fold induction at 48 h, 0.01 µM (CYP3A4 mRNA; Lot 348B, 0.01 μM) was 1.1 ± 0.05, the fold induction at 48 h, 0.1 µM (CYP3A4 mRNA; Lot 348B, 0.1 μM) was 1.2 ± 0.081 and the fold induction at 48 h, 1 µM (CYP3A4 mRNA; Lot 348B, 1 μM) was 1.3 ± 0.12. It also gave a fold induction at 48 h, 3 µM (CYP3A4 mRNA; Lot 348B, 3 μM) of 1.8 ± 0.17, a fold induction at 48 h, 5 µM (CYP3A4 mRNA; Lot 348B, 5 μM) of 2 ± 0.27 and a fold induction at 48 h, 10 µM (CYP3A4 mRNA; Lot 348B, 10 μM) of 1.9 ± 0.13. It also gave a fold induction at 48 h, 0.01 µM (CYP3A4 mRNA; Lot 399, 0.01 μM) of 1.2 ± 0.2, a fold induction at 48 h, 0.1 µM (CYP3A4 mRNA; Lot 399, 0.1 μM) of 1.2 ± 0.11 and a fold induction at 48 h, 1 µM (CYP3A4 mRNA; Lot 399, 1 μM) of 1.8 ± 0.12. The fold induction at 48 h, 3 µM (CYP3A4 mRNA; Lot 399, 3 μM) was 2.6 ± 0.14, the fold induction at 48 h, 5 µM (CYP3A4 mRNA; Lot 399, 5 μM) was 2.7 ± 0.4 and the fold induction at 48 h, 10 µM (CYP3A4 mRNA; Lot 399, 10 μM) was 2.3 ± 0.39. For the same molecule, the “fold difference in mean uptake rate (substrate test)” value (OAT1; OAT1, 1 μM, transporter cells vs control cells) was under 2 fold, the “Inhibition (%)” value (OAT1; OAT1, 0.1% BSA, 10 μM) was “no statistically significant inhibition” and the inhibition at 10 µM (OAT1; human, polarized monolayer of MDCK-II cells expressing OAT1, OAT1, 0.1% BSA, 10 μM) was 8.97 ± 1.58%.
